From patent publication US9492376B2, “Polymer-conjugated albumin hydrogels for controlled release of therapeutic agents” (TECHNION RESEARCH AND DEVELOPMENT FOUNDATION LTD., priority 2008, dated 2016)

Legend:
[1] = Warfarin fluorescence and albumin binding; conditions: for Fluorescence Intensity Ratio Comparing to Warfarin Alone: 5 mg/ml protein in PBS, 10:1 molar ratio albumin to Warfarin, ~5 hours incubation, excitation 320 nm, emission 385 nm, n = 6
Protocol: The mixture was incubated for ˜5 hours before reading fluorescence emission (λ=385 nm) at a 320 nm excitation wavelength using a Varioscan spectral scanning multimode reader (Thermo Electron Corporation, Vantaa, Finland).

[2] = Equilibrium dialysis of Warfarin with wild-type or PEGylated albumin; format: binding; conditions: result in words; for affinity of Warfarin to the protein by equilibrium dialysis: equilibrium at about 24 hr, compared to wild-type albumin
Protocol: The two chambers of the device were separated by a dialysis membrane (12-14 kDa MW cutoff) and drug diffusion was measured by fluorescence spectroscopy. One dialysis chamber of the device was filled with 25 ml PBS solution containing 0.1% (w/v) of sodium azide (Fluka).

[3] = Drug release from hydrogels, with diffusion model fitting; format: physicochemical; conditions: for Average drug release (last 30 min), normalized amount: released from purified mono-PEGylated albumin hydrogels (10 kDa PEG), insulins fluorescein-labelled, FIG. 5
Protocol: Both LEVEMIR® and […]® were fluorescently labelled by 5 mg/ml NHS-fluorescein (Pierce, Illinois, U.S.A.) in DMSO, with a molar ratio of 15:1 NHS-fluorescein to insulin. The solution was allowed to react for 5 hr in 4° C. and dialysed (Cellu-Sep H1, 1-kDaMW cutoff, Texas, U.S.A.) against PBS with 0.1% (w/v) of sodium azide with DMSO in decreasing concentrations of DMSO (10-0%) for 1 week.
The drug was saturated in disk-shaped hydrogel constructs prepared from PEG-DA or PEGylated proteins, that were formed into hydrogels by photopolymerization using 0.1% (w/v) Irgacure™ 2959 (Ciba Specialty Chemicals, Basel, Switzerland) and UV light (λ=365 nm, 4-5 mW/cm^2) exposure for 5 min as described elsewhere (Gonen-Wadmany et al., 2007). The hydrogel constructs were produced from six different hydrogel precursor solutions, including: (i) purified mono-PEGylated albumin in PEG-DA; (ii) non-purified mono-PEGylated albumin (containing wild-type and multi-PEGylated albumin) in PEG-DA; (iii) multi-PEGylated albumin in PEG-DA; (iv) wild-type albumin in PEG-DA; (v) PEG-DA; (vi) PEGylated fibrinogen in PEG-DA. In all cases, the protein (albumin or fibrinogen) concentration was 8.5 mg/ml, and the PEG-DA was added to reach a total PEG concentration of 7%.
Drug release from the hydrogel constructs into the supernatant was measured fluorescently (excitation at […]) in PBS with 0.1% (w/v) of sodium azide under constant agitation at 37° C. using a Varioscan plate-reader (Thermo Electron Corporation, Finland). (In the case of degradation experiments, 0.01 mg/ml of Trypsin (MP Biomedicals) was added to the PBS solution.) The raw data was normalized by the fluorescence intensity measured after 24 hours. The constructs were liquefied by homogenization or sonication (for multi-PEGylated albumin and fibrinogen), or by chemical means using 0.1 M NaOH, and the drug content was quantified to confirm complete drug release.
The drug release profiles were compared with a known model of diffusion-based release kinetics. […]

[4] = target: serum albumin (Homo sapiens, UniProt P02768); conditions: cited from earlier work

Row | Fluorescence Intensity Ratio Comparing to Warfarin Alone [1] | Compound | Average drug release (last 30 min), normalized amount [3] | affinity of Warfarin to the protein by equilibrium dialysis [2] | also measured
1 | 2.8 ± 0.2 | Albumin: bovine serum albumin (MP Biomedicals), non-PEGylated control in solution |  |  | increase in Warfarin fluorescence when bound to albumin ([1]; bovine albumin, versus unbound Warfarin): 2.8 fold; percent of drug (Warfarin) transported through the dialysis membrane at equilibrium ([2]; about 24 hr, albumin to Warfarin 5:1, room temperature): lowest
2 | 1.5 ± 0.4 | PEG-Alb 4 kDa: bovine serum albumin multi-PEGylated with linear 4 kDa PEG-DA, in solution |  | significantly less affinity | 
3 | 1.6 ± 0.3 | PEG-Alb 1.5 kDa: bovine serum albumin multi-PEGylated with linear 1.5 kDa PEG-DA, in solution |  | significantly less affinity | 

Further lines, the compound ahead of its results:

Row | Compound | Fluorescence Intensity Ratio Comparing to Warfarin Alone [1] | Average drug release (last 30 min), normalized amount [3] | affinity of Warfarin to the protein by equilibrium dialysis [2] | also measured
4 | COc1ccc2cc([C@H](C)C(=O)O)ccc2c1 [Naproxen] |  | 0.66±0.07 |  | release kinetics of drugs compared ([3]; from purified mono-PEGylated albumin hydrogels (10 kDa PEG), p-value<0.05): released significantly faster
5 | ACTRAPID®: regular human insulin formulation, 100 IU/ml, Novo Nordisk; no binding affinity to serum albumin |  | 0.57±0.14 |  | binding affinity to serum albumin [4]: no binding affinity
6 | PEG-Alb 10 kDa: bovine serum albumin multi-PEGylated with linear 10 kDa PEG-DA, in solution | 1.5 ± 0.5 |  |  | 
